{"source": "patent US8673882B2", "about": "“Inhibitors of autotaxin” (University of Tennessee Research Foundation, priority 2011, dated 2014)", "key": {"[1]": {"system": "MM1 hepatocarcinoma cells", "test": "Invasion of HUVEC monolayer by MM1 cells", "format": "cell-based, rat", "details": "for LPC-dependent invasion of the HUVEC monolayer: 1.5 μM LPC, FIG. 14; for basal rate of invasion: compounds alone, without LPC", "source_text": "(§1) Cancer metastasis is a complex process that cannon be accurately modeled in vitro. Models that utilize cellular monolayers for the invasion of carcinoma cell come the closest to the situation in vivo. Two different cell monolayers, mouse mesothelium and human vascular endothelium were used to examine the role of ATX in the invasion of MM1 hepatocarcinoma cells and the reduction of such invasion by the chemical compounds of the present application. The mesothelial monolayer is an accepted model for invasion of body cavities lined by serous cells whereas, the HUVEC monolayer is considered to be an in vitro model of hematogenous invasion of carcinomas.\n(§2) Highly invasive MM1 cells originally isolated from the AH130 rat hepatoma cells were utilized in these studies. The cells were grown in suspension in DMEM supplemented with 10% fetal bovine serum, 2 mM glutamine, 100 units/ml penicillin and 10 μg/ml streptoinycin. Mesothelial cells were isolated and cultured from C57BL/6 mice. Human umbilical cord vascular endothelial cells (HUVEC) were obtained from VEC Technologies Inc., (Rensselaer, N.Y., USA) and were grown in MCDB-131 complete medium containing 10% fetal bovine serum. 90 μg/ml heparin, 10 ng/ml EGF, 1 μg/ml hydrocortisone, 0.2 mg/ml EndoGrowth supplement, 100 units/ml penicillin G, 100 μg/ml streptomycin and 25 μg/ml amphotericin B (all from VEC Technologies). Tumor cell invasion was performed by seeding 1.3×10^5 HUVECs (passage 7) into each well of a 12-well plate pre-coated with 0.2% gelatin (Sigma) and cultured for 2 days to form a confluent monolayer. Mesothelial cells harvested from two-three mice were initially plated in 6-well plates and grown to confluency in DMEM medium supplemented with 10% fetal bovine serum in the presence of 100 units/ml penicillin G and 10 μg/ml streptomycin. When confluent, the mesothelial cells were split into three equal aliquots (˜5×10^4 cells each) and plated to three wells of a 12-well plate and grown to confluence.\nInvasion of MM1 cells of Example 53 was determined and the effect of compounds of the present application in reducing the invasion was determined. For all invasion assays, MM1 cells were pre-stained with 2 μg/ml calcein AM (Invitrogen, USA) for 2 h, rinsed once, and seeded at a density of 5×10^4 cells/well over the monolayers. Tumor cells were left to invade the HUVEC monolayer for 24 h in MCDB-131 complete media containing 1% serum with or without addition of 1.5 μM LPC. MM1 cells were plated on the mesothelial monolayers in 2% fetal bovine serum-supplemented DMEM medium in the presence of 100 units/ml penicillin G and 10 μg/ml streptomycin with or without 1.5 μM LPC (5 μM for the mesothelium cells) and invasion was allowed to proceed for 20 h. The day after MM1 cell seeding, non-invaded tumor cells were removed by repeated five rinses of the HUVEC monolayer (three rinses for the mesothelial monolayers) with PBS (containing Ca^2+ and Mg^2+) followed by fixation with 10% buffered formalin. The number of tumor cells that penetrated the monolayer was photographed under a NIKON TiU inverted microscope using phase-contrast and fluorescence illumination in a minimum of five non-overlapping fields at 100× magnification. The fluorescent images were overlayed on top of the phase contrast images using the Elements BR software (version 3.1x) and the invaded MM1 cells showing the characteristic flattened morphology in the plane of focus underneath the monolayer were counted. […]"}, "[2]": {"target": "recombinant, purified human ATX (Homo sapiens, UniProt Q13822)", "test": "Mechanism of autotaxin inhibition (IC50, Ki, Ki′; FS-3 hydrolysis)", "format": "biochemical", "details": "for IC50: 8.3 nM ATX, 1 μM FS-3, 15 μM BSA; for ATX Mechanism of inhibition: FS-3 0.3 μM to 20 μM, inhibitor 0, 0.5× and 2× IC50", "protocol": "The mechanism of inhibition of ATX was determined using recombinant, purified human ATX and FS-3. Final ATX and FS-3 concentrations were 8.3 nM and 1 μM, respectively and the assay buffer with 15 μM fatty acid tree BSA. To calculate IC50, full dose responses were determined for the test compounds. […] Simultaneous non-linear regression, using, WinNonLin® 6.1 (Pharsight, Mountain View, Calif.) was used to assign the mechanism of inhibition. Ki and Ki′ values (the affinity for free enzyme and enzyme substrate complex, respectively) were determined by calculating the lowest averaged percent residuals for each mechanism derived from curve fitting using the Michealis-Menten equations for competitive, uncompetitive, mixed-mode, and non-competitive inhibition."}, "[3]": {"system": "MM1 hepatocarcinoma cells", "test": "Invasion of mesothelial cell monolayer by MM1 cells", "format": "cell-based, rat", "details": "with LPC; FIG. 12 panel E", "source_text": "as §1, §2\nInvasion of MM1 cells of Example 53 was determined and the effect of compounds of the present application in reducing the invasion was determined. For all invasion assays, MM1 cells were pre-stained with 2 μg/ml calcein AM (Invitrogen, USA) for 2 h, rinsed once, and seeded at a density of 5×10^4 cells/well over the monolayers. […] The number of tumor cells that penetrated the monolayer was photographed under a NIKON TiU inverted microscope using phase-contrast and fluorescence illumination in a minimum of five non-overlapping fields at 100× magnification. The fluorescent images were overlayed on top of the phase contrast images using the Elements BR software (version 3.1x) and the invaded MM1 cells showing the characteristic flattened morphology in the plane of focus underneath the monolayer were counted. […]"}, "recombinant human ATX": {"target": "recombinant human ATX (Homo sapiens, UniProt Q13822)", "test": "Autotaxin inhibition screening assay (FS-3 FRET substrate)", "format": "biochemical", "details": "FS3 hydrolysis"}, "NPP7": {"target": "T1, NPP7 (Homo sapiens, UniProt Q6UWV6)", "T1 sequence (Q6UWV6 22-458)": "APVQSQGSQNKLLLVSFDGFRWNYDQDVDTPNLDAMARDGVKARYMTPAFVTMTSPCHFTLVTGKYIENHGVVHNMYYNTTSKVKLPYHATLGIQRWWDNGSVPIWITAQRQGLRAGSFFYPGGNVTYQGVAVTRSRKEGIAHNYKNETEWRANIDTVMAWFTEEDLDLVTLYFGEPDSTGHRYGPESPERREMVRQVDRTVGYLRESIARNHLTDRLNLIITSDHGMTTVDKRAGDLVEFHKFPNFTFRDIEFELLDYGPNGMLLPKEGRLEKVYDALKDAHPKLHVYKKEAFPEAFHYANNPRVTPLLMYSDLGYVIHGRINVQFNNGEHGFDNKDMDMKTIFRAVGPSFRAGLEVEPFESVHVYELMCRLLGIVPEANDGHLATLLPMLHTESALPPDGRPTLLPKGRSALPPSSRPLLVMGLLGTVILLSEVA", "test": "NPP-7 inhibition assay (pNPPC substrate)", "format": "biochemical", "details": "10 μM compound; 8.3 nM enzyme; 10 μM pNPPC; read-out: NPP7 Activity, % control (10 μM)", "protocol": "NPP6 and NPP7 are the only NPP isoforms other than ATX that are known to utilize lysophospholipid phosphodiesters as substrates. Therefore, the specificity of the chemical compounds of the invention regarding ATX was addressed by determining the activity of NPP6 and NPP7 in the presence and absence of these analogs.\nInhibition of NPP6 and NPP7 was evaluated using recombinant, purified proteins, the synthetic substrate para-nitrophenylphosphocholine (pNPPC) and a Synergy II plate reader (BioTek, Winooski, Vt.). The final concentration of each enzyme was 8.3 nM and pNPPC was 10 μM. All analogs were tested at single 10 μM concentrations. Absorbance of liberated para-nitrophenol at 405 nm was determined up to 1 hour (where responses were linear) and was normalized to vehicle control."}, "[4]": {"details": "affinity for enzyme substrate complex"}}, "note": "“Also recorded” adds a separate entry of the source.", "data": [{"smiles": "CCCCCCCCCCC/C=C/c1ccc2cc(CP(=O)(O)O)ccc2c1", "note": "[Compound 30b, (E)-6-Tridec-1-enyl-naphthalen-2-yl-methylphosphonic acid]", "values": [{"measurement": "LPC-dependent invasion of the HUVEC monolayer", "setting": "[1]", "value": "dose-dependently inhibited"}, {"measurement": "basal rate of invasion", "setting": "[1]", "value": "did not reduce"}, {"measurement": "IC50", "setting": "[2]", "value": 1400, "unit": "nM"}, {"measurement": "ATX Mechanism of inhibition", "setting": "[2]", "value": "MIXED"}, {"measurement": "Ki", "setting": "[2]; [4]", "value": 1010, "unit": "nM"}, {"measurement": "Ki", "setting": "[2]; affinity for free enzyme", "value": 1500, "unit": "nM"}, {"measurement": "MM1 cell invasion of the mesothelial monolayer", "setting": "[3]", "value": "inhibited"}, {"measurement": "ATX inhibition in dose-response curves (FIG. 10)", "setting": "recombinant human ATX", "value": "dose-dependently and completely inhibited ATX"}, {"measurement": "remaining activity at 10 µM", "setting": "NPP7", "value": 96.5, "unit": "%"}]}, {"smiles": "CCCCCCCCCCCCCCCc1ccc(CP(=O)(O)O)cc1", "note": "[Compound 22, 4-Pentadecylbenzylphosphonic acid]", "values": [{"measurement": "LPC-dependent invasion of the HUVEC monolayer", "setting": "[1]", "value": "dose-dependently inhibited; also recorded: blockage"}, {"measurement": "basal rate of invasion", "setting": "[1]", "value": "did not reduce"}, {"measurement": "IC50", "setting": "[2]", "value": 170, "unit": "nM"}, {"measurement": "ATX Mechanism of inhibition", "setting": "[2]", "value": "Mixed"}, {"measurement": "Ki", "setting": "[2]; [4]", "value": 280, "unit": "nM"}, {"measurement": "Ki", "setting": "[2]; affinity for free enzyme", "value": 270, "unit": "nM"}, {"measurement": "MM1 cell invasion of the mesothelial monolayer", "setting": "[3]", "value": "inhibited; also recorded: inhibition"}, {"measurement": "ATX inhibition in dose-response curves (FIG. 10)", "setting": "recombinant human ATX", "value": "dose-dependently and completely inhibited ATX"}, {"measurement": "remaining activity at 10 µM", "setting": "NPP7", "value": 96.7, "unit": "%"}]}]}
